Test results taken from patent US20220370636A1, “NICOTINAMIDE ADENINE DINUCLEOTIDE ACTIVATOR AND USE THEREOF” (University of South Florida, priority 2021, published 2022).
Entries after “also recorded” stand apart in the source; their conditions may differ.

Tests used:
C2C12 cells [1] = experiment: Scratch (wound closure) assay in C2C12 cells; format: cell-based, mouse; conditions: for percent wound closure: 16 h, vs control cells
Procedure: In vitro model (C2C12 skeletal muscle myoblast) of scratch assay (wound) was created by using pipette tip and recovery of cells was monitored for 16 hours after the scratch. The percent wound closure was measured by the area indicated (FIG. 5B).
Scratch assay in C2C12 cells. C2C12 cells were seeded into either 6-well or 12-well plates and allowed to grow up to 90% confluence. Scratch or wound injury was induced by streaking the plate (2-3 streaks/well) using a 1000 μL sterilized pipette tip in each well. Treatments were performed with the vehicle or P7C3 groups within the cell culture media. Images were taken of each streak immediately after with an Echo Rebel microscope, and the cell culture plates were then placed in the incubator for 16 h. After 16 h, images were obtained at the same location of the streaks utilizing the coordinates marked. The ImageJ software (NIH, USA) was utilized to calculate the areas of the scratches at the 0 h and 16 h time point, with the area at 16 h divided by the area at 0 h to determine the percent wound closure.
Three sets of experiments were performed with this assay to determine the percent wound closure with the P7C3 solution, the P7C3 NPs, the A01B conjugate P7C3 NPs, and the P7C3 scrambled aptamer NPs. For assessing the effects of the P7C3 solution on percent wound closure, the cells were treated with the vehicle control (DMSO) and 100 nM-2 μM P7C3. For determining the effect of P7C3 NPs, the cells were treated with the vehicle control (blank NPs) and 10 nM-1 μM P7C3 NPs. Finally, for the targeted A01B conjugated P7C3 NPs and scrambled aptamer conjugated P7C3 NPs, the cells were treated with the vehicle controls (blank aptamer conjugated NPs) and 100 nM each of both aptamers conjugated NPs.

C2C12 cells [2] = experiment: MTT cytotoxicity study in C2C12 cells; format: cell-based, mouse
Procedure: Cytotoxicity study. The cytotoxicity of P7C3 nanoparticles (P7C3 NP), and the skeletal muscle-specific aptamer-based targeted P7C3 nanoparticles (P7C3 NP Apt) were determined using the MTT assay in C2C12 cells and was compared with the P7C3 solution, DMSO and control media. Briefly, the mouse C2C12 myoblasts were seeded at a seeding density of 10,000 cells/well in three 96-well plates (Corning, N.Y., USA) in 100 μl of growth medium, i.e., DMEM F12 supplemented with 10% FBS, and 1% P/S and were allowed to grow for 24, 48, and 72 h after an initial attachment period of 24 h, which was considered as time 0. […] The 0 nM concentration had the solvent vehicle control DMSO, in which the drugs P7C3, 7C3 NPs, and P7C3 NPs Apt were dissolved. The MTT reagent solution (1 mg/mL) was added to each well after 24, 48, and 72 h of cell proliferation and the assay was performed according to the manufacturer's protocol (Thermo Fisher Scientific CyQUANT™ MTT Cell Viability Assay kit, USA). The spectrophotometer reading was measured at 540 nm wavelength using a Synergy H1 Hybrid Multi-Mode Reader. Cell viability was calculated and plotted, considering the optical density of solvent vehicle control DMSO wells as 100% viable.

NF-κB = experiment: Luciferase assay in TNF-α inflamed C2C12/NF-κB reporter cells; format: cell-based, mouse; conditions: 100 and 500 nM, and 1 μM; 24 hours; 10 ng/mL TNF-α; vs DMSO+TNF-α
Procedure: Cell culture and Luciferase assay. The C2C12/NF-κB reporter cells were grown in DMEM supplemented with 10% FBS and 1% penicillin/streptomycin. Puromycin selection of the cells was performed by adding 2 μg/mL to the media, and the C2C12 cells with the NF-κB reporter gene were selected for further culturing. Cells were plated at 40,000 cells per well for the initial seeding density using a 24-well format. To induce inflammation, TNF-α was added at a concentration of 10 ng/mL, and simultaneously, the cells were treated with the vehicle control (DMSO or blank NPs), P7C3 solution, and P7C3 NPs. […] After 24 hours, the luciferase assay was conducted per manufacturer protocol (Promega Luciferase Assay System, USA). Using a Synergy H1 Hybrid Multi-Mode Reader, the luminescence of the cell lysate in the opaque 96-well plate was measured. Protein in the cell lysates was measured using a Pierce™ 660 nm protein assay. The luciferase activity was calculated after normalization with protein concentration.

C57Bl/6J wildtype hearts = experiment: Ex vivo ischemia reperfusion, post-ischemia exposure in wildtype hearts; design: species or system mice
Procedure: Hearts undergoing ex vivo ischemia reperfusion protocol post-exposure with P7C3 (3 μM) were performed as defined above. Hearts were stabilized for 30 min before proceeding to the ischemic phase. Cardiac ischemia was induced by the pause in Krebs-Hanseleit buffer perfusion for 45 min. Reperfusion was induced with the induction of Krebs-Hanseleit buffer at a constant flow of ˜2.2 ml/min for 1 hour. Hearts that underwent P7C3 (3 μM) treatment received 1-hour reperfusion with P7C3 (3 μM) within the Krebs-Hanseleit buffer.

Nampt = target: T1, Nampt (Mus musculus, UniProt Q99KQ4); experiment: Cardiac Nampt enzymatic activity in db/db mice; format: in vivo; conditions: 10 mg/kg body weight/day, i.p., four-week, vs vehicle
T1 construct: from tissue; host or cells: whole heart homogenate of db/db mice
Description: Nampt enzymatic activity.

C2C12 cells [3] = experiment: LPS induced LDH release in C2C12 skeletal myotubes; format: cell-based, mouse; conditions: P7C3 1 μM 24 hours
db/db mice hearts = experiment: Pyridine nucleotide measurements in db/db hearts; format: in vivo; conditions: vs vehicle control
Procedure: Pyridine nucleotide measurements. NADH/NAD^+ ratios were determined in frozen db/db heart tissues (from the vehicle and P7C3 treated mice) using commercially available EnzyChrome kit (Bioassays, Hayward, Calif., USA) as reported before. Following manufacturer's instructions, cardiac tissue was homogenized in 100 μl of NAD^+ or NADH extraction buffer for NAD^+ and NADH determination, respectively. Samples were heated at 60° C. for 5 minutes on a heat block and neutralized by adding 100 μl of the opposite extraction buffer. Samples were then mixed by brief vortexing and centrifuged at 14,000 rpm for 5 minutes. 40 μl of supernatant from each sample was dispensed in duplicates in a 96-well plate, and 80 μl of working reagent constituted with supplier provided assay buffer, lactate dehydrogenase, lactate and MTT reagent was added to each well. Samples were gently mixed and optical density at 565 nm was acquired immediately (0 min) and after 15 minutes, at room temperature using a microplate reader. A standard curve was utilized for calculating NADH/NAD^+ levels in each sample.

T1 sequence (Q99KQ4 whole entry): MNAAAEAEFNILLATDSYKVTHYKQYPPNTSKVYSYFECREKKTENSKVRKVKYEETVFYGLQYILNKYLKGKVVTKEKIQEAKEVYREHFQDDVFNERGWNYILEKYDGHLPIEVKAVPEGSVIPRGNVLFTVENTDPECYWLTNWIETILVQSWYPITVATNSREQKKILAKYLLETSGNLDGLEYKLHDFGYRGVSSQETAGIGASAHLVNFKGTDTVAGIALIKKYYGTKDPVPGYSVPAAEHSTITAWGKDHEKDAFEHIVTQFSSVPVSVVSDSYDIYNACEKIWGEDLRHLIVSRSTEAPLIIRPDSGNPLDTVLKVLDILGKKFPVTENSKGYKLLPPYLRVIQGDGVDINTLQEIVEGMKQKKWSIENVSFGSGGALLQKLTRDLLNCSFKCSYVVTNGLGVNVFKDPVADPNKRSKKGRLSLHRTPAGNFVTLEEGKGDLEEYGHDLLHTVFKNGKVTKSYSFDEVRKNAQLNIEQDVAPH

Question: Which percent wound closure (C2C12 cells [1]; 10 nM) does the source give for `OC(CNc1ccccc1)Cn1c2ccc(Br)cc2c2cc(Br)ccc21` (centres unmarked) [P7C3, 3,6-Dibromo-a-[(phenylamino)methyl]-9H-carbazole-9-ethanol] here?
Answer: not significant

Question: And the percent wound closure (C2C12 cells [1]; 100 nM)?
Answer: not significant

Question: And the percent wound closure (C2C12 cells [1]; 500 nM)?
Answer: significantly increased

Question: And the percent wound closure (C2C12 cells [1]; 1 μM)?
Answer: significantly increased; also recorded: significantly higher

Question: And the percent wound closure (C2C12 cells [1]; 2 μM)?
Answer: significantly increased

Question: And the “gap closure at 16 hrs” value (C2C12 cells [1]; C2C12 cells, 1 μM or 100 nM for 24 hours followed by wire injury)?
Answer: significantly augmented

Question: And the “cytotoxicity (MTT cell viability)” value (C2C12 cells [2]; 0, 10, 500, 1000 nM, 24, 48, 72 h)?
Answer: not toxic

Question: And the cell viability (C2C12 cells [2]; 10 nM, 72 h, vs control cells)?
Answer: significantly higher

Question: And the “NF-κB activity (luciferase)” value (NF-κB)?
Answer: significant decrease

Question: And the “overall ischemic injury (infarct)” value (C57Bl/6J wildtype hearts; WT hearts perfused post-ischemia with P7C3 3 μM, 60 mins reperfusion)?
Answer: 22%

Question: What about the “reduction of overall infarct size compared with reperfusion alone” value (C57Bl/6J wildtype hearts; post-ischemic exposure, wildtype hearts) of the same molecule?
Answer: 2.5 fold

Question: And the “cardiac Nampt activity” value (Nampt)?
Answer: significantly increased

Question: What about the “LPS induced LDH release (inflammation in vitro)” value (C2C12 cells [3]) of the same molecule?
Answer: attenuated

Question: And the “increase in cardiac NAD+/NADH ratio” value (db/db mice hearts)?
Answer: 2.5 fold
